Experimental data from PubChem BioAssay (NCI).
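Briefly, cells in 96-well plates were exposed to five compound concentrations for 48 h, and endpoints were estimated by linear interpolation. GI50 marks 50% less growth. TGI denotes the concentration required for complete inhibition of growth.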

What was measured:
Assay in all cases: NCI-60 cell line screen, 48 h
SK-MEL-28 melanoma = system: SK-MEL-28 melanoma
HOP-62 NSCLC = system: HOP-62 NSCLC
U251 CNS = system: U251 CNS
SK-MEL-5 melanoma = system: SK-MEL-5 melanoma
HCC-2998 colon = system: HCC-2998 colon
HT29 colon = system: HT29 colon
MOLT-4 leukemia = system: MOLT-4 leukemia
PC-3 prostate = system: PC-3 prostate
MCF7 breast = system: MCF7 breast
T-47D breast = system: T-47D breast

C=C(CO)CC(O)c1cc(OC)ccc1OC (centres undefined)
TGI (SK-MEL-28 melanoma): > 100 µM | TGI (HOP-62 NSCLC): > 100 µM | TGI (U251 CNS): > 100 µM | TGI (SK-MEL-5 melanoma): > 100 µM | TGI (HCC-2998 colon): > 100 µM | TGI (HT29 colon): > 100 µM | TGI (MOLT-4 leukemia): > 100 µM

CCCCCOCC(O)CO (centres undefined)
TGI (SK-MEL-28 melanoma): > 100 µM | TGI (HOP-62 NSCLC): > 100 µM | TGI (U251 CNS): > 100 µM | TGI (SK-MEL-5 melanoma): > 100 µM

O=C(O)C[C@@H](Cl)[C@H](NC(=O)OCc1ccccc1)C(=O)O
TGI (SK-MEL-28 melanoma): > 100 µM | TGI (HOP-62 NSCLC): > 100 µM | TGI (U251 CNS): > 100 µM | TGI (SK-MEL-5 melanoma): > 100 µM | TGI (HCC-2998 colon): > 100 µM | TGI (HT29 colon): > 100 µM | TGI (MOLT-4 leukemia): > 100 µM

Cc1c(O)c(N=Nc2nc3ccccc3s2)c2ccccc2c1O
GI50 (PC-3 prostate): 32 µM | TGI (PC-3 prostate): > 50 µM | GI50 (MCF7 breast): > 50 µM | TGI (MCF7 breast): > 50 µM | GI50 (HOP-62 NSCLC): > 50 µM | TGI (HOP-62 NSCLC): > 50 µM | GI50 (U251 CNS): 25.5 µM | TGI (U251 CNS): > 50 µM | GI50 (SK-MEL-5 melanoma): 8.85 µM | TGI (SK-MEL-5 melanoma): 21.2 µM | GI50 (HCC-2998 colon): > 50 µM | TGI (HCC-2998 colon): > 50 µM | GI50 (MOLT-4 leukemia): > 50 µM | TGI (MOLT-4 leukemia): > 50 µM | GI50 (T-47D breast): 39.2 µM | TGI (T-47D breast): > 50 µM

CC(C)C12Cc3c(ccc4ccccc34)OC1(C)Oc1ccc3ccccc3c1C2 (centres undefined)
TGI (U251 CNS): > 100 µM | TGI (SK-MEL-5 melanoma): > 100 µM | TGI (HT29 colon): > 100 µM | TGI (MOLT-4 leukemia): > 100 µM

O=C1CSC(=S)N1c1ccco1
TGI (PC-3 prostate): > 100 µM | TGI (SK-MEL-28 melanoma): > 100 µM | TGI (MCF7 breast): > 100 µM | TGI (HOP-62 NSCLC): > 100 µM | TGI (U251 CNS): > 100 µM | TGI (SK-MEL-5 melanoma): > 100 µM | TGI (HT29 colon): > 100 µM | TGI (MOLT-4 leukemia): > 100 µM

CCC(=O)N1C(=O)OCC1C(C)C (centres undefined)
TGI (HOP-62 NSCLC): > 100 µM | TGI (U251 CNS): > 100 µM | TGI (SK-MEL-5 melanoma): > 100 µM | TGI (HCC-2998 colon): > 100 µM | TGI (HT29 colon): > 100 µM | TGI (MOLT-4 leukemia): > 100 µM

CC(C)N(O)C(=N)c1ccccc1
TGI (SK-MEL-28 melanoma): > 100 µM | TGI (HOP-62 NSCLC): > 100 µM | TGI (U251 CNS): > 100 µM | TGI (SK-MEL-5 melanoma): > 100 µM | TGI (HCC-2998 colon): > 100 µM | TGI (HT29 colon): > 100 µM

Oc1ccc(O)c(-c2cn3c(n2)SCC3)c1
GI50 (PC-3 prostate): 19.1 µM | TGI (PC-3 prostate): 38 µM | GI50 (MCF7 breast): 26.8 µM | TGI (MCF7 breast): > 100 µM | GI50 (U251 CNS): 18.3 µM | TGI (U251 CNS): 33.6 µM | GI50 (SK-MEL-5 melanoma): 16.9 µM | TGI (SK-MEL-5 melanoma): 33 µM | GI50 (HCC-2998 colon): 19.6 µM | TGI (HCC-2998 colon): 36.2 µM | GI50 (MOLT-4 leukemia): 4.37 µM | TGI (MOLT-4 leukemia): 9.55 µM | GI50 (T-47D breast): 17.5 µM | TGI (T-47D breast): 42.2 µM

CCCCCCCCCCCCCCCC1=NCCN1
GI50 (PC-3 prostate): 2.03 µM | TGI (PC-3 prostate): 4.24 µM | GI50 (SK-MEL-28 melanoma): 1.88 µM | TGI (SK-MEL-28 melanoma): 3.77 µM | GI50 (U251 CNS): 1.87 µM | TGI (U251 CNS): 3.52 µM | GI50 (SK-MEL-5 melanoma): 1.81 µM | TGI (SK-MEL-5 melanoma): 3.24 µM | GI50 (HCC-2998 colon): 1.85 µM | TGI (HCC-2998 colon): 3.42 µM | GI50 (HT29 colon): 1.87 µM | TGI (HT29 colon): 4.45 µM | GI50 (T-47D breast): 2.14 µM | TGI (T-47D breast): 5.65 µM

Nc1c(C(=O)Nc2ccccc2)sc2nc3c(cc12)CCCCC3
GI50 (PC-3 prostate): 0.547 µM | TGI (PC-3 prostate): > 100 µM | GI50 (SK-MEL-28 melanoma): 0.812 µM | TGI (SK-MEL-28 melanoma): > 100 µM | GI50 (MCF7 breast): 0.332 µM | TGI (MCF7 breast): > 100 µM | GI50 (HOP-62 NSCLC): 0.88 µM | TGI (HOP-62 NSCLC): 13.9 µM | GI50 (U251 CNS): 0.767 µM | TGI (U251 CNS): 19.5 µM | GI50 (SK-MEL-5 melanoma): 0.353 µM | TGI (SK-MEL-5 melanoma): 5.2 µM | GI50 (HCC-2998 colon): 1.01 µM | TGI (HCC-2998 colon): > 100 µM | GI50 (MOLT-4 leukemia): 2.67 µM | TGI (MOLT-4 leukemia): > 100 µM | GI50 (T-47D breast): 0.834 µM | TGI (T-47D breast): 80.6 µM
